# Laboratory results: US12403132B2, “Methods of treating bone marrow failure syndromes and compositions for use in the same” (The Board of Trustees of the Leland Stanford Junior …, priority 2020, dated 2025)
# What was measured:
# [1] = test system: S6K; experiment: S6K phosphorylation in differentiating RPS19-insufficient CD34+ progenitors; assay type: cell-based, human; settings: 5 μM, differentiating RPS19-insufficient cells
# Method: FIG. 5. NLK-mediated phosphorylation of raptor leads to reduced mTOR activity and increased autophagy. (a) Fetal liver CD34+ progenitors were transduced with controls or shRPS19 and differentiated for 5 days in the presence or absence of 5 μM BI-D1870 (RSK inhibitor). Samples were lysed and normalized for protein abundance before being subjected to immunoprecipitation of NLK, raptor, S6K and 4E-BP1. Immunoprecipitated NLK was utilized to examine NLK activity (a—top panel—Orange, blue and green depict NLK, Myb and raptor phosphorylation respectively), while raptor, S6K and 4E-BP1 were subjected to western blotting for phosphorylated serine/threonine residues (bottom panels). In parallel, lysates were probed for total raptor, S6K, 4E-BP1, NLK and GAPDH (bottom panels) by Western blotting. […] (d) Cells treated as above were plated in 96 wells and absorbance measured at a wavelength of 520 nm. […] After imagining, 100 cells per group were analyzed and the number of intense fluorescent puncta per cell was scored (lower panels).
# Raptor is the regulatory component of the mTOR Complex 1 and a substrate of NLK in osmotic and oxidative stress. […] We determined immuno-purified NLK from human and murine RPS19- and RPL11-insufficient progenitors, as well as derived from DBA patients can phosphorylate raptor in vitro (FIGS. 1-4). […]
# [2] = test system: red cell production; experiment: Red cell production in in vitro DBA models; assay type: cell-based
# Source text: (§1) IV. Nemo-like kinase (NLK) is hyperactivated in red cell precursors in the bone marrow of patients with DBA. Inhibition of NLK by knockdown or chemical compounds in our in vitro DBA models results in improvement of red cell production. Regardless of the underlying genetic mutation causing DBA, NLK is hyperactivated. […] Our goal is to next test OTS167 in mouse models of DBA. According to clinical trials.gov, OTS167 is currently in trials for AML, ALL, MDS, MPN, and CML, solid tumors, and breast cancer, but not DBA. This is the first example of a targeted therapy for all DBA patient regardless of the underlying mutations. Giving this drug would be easier and cheaper than gene editing to correct the gene defect.
# [3] = test system: normal bone marrow cells; experiment: Toxicity to normal bone marrow cells; assay type: cell-based; settings: in vitro
# Source text: as §1
# [4] = biological target: T1, NLK (Homo sapiens, UniProt Q9UBE8); experiment: NLK inhibition by OTS167 in DBA models
# T1 sequence (Q9UBE8 1-527): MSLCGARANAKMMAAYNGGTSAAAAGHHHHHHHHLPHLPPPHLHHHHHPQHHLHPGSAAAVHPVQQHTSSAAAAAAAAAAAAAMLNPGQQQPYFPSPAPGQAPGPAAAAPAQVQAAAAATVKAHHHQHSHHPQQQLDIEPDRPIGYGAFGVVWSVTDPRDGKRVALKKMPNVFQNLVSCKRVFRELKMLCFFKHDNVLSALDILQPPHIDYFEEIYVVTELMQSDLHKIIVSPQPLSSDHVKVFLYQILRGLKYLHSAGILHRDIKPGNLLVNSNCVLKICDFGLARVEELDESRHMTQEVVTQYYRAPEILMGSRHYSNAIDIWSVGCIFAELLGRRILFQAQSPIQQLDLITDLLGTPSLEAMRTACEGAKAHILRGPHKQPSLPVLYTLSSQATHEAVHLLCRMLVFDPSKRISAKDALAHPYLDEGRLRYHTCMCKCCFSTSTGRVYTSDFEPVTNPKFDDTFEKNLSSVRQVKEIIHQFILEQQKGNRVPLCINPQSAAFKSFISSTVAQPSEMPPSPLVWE
# Source text: as §1
inhibition of NLK [4],SMILES,S6K phosphorylation [1],red cell production in vitro [2],toxicity to normal bone marrow cells [3]
,CC(C)CCN1c2nc(Nc3cc(F)c(O)c(F)c3)ncc2N(C)C(=O)C1C (stereo not shown) [BI-D1870],reduced to below basal levels,,
inhibit NLK,CC(=O)c1cnc2ccc(-c3cc(Cl)c(O)c(Cl)c3)nc2c1N[C@H]1CC[C@H](CN(C)C)CC1 [OTS167],,improves red cell production,without toxicity
